# Assay results from US4746349A, “Method and compositions for suppressing the nitrification of ammonium in plant growth medium” (American Cyanamid Company, priority 1986, dated 1988).
# Counter-ions that a name gives are not always drawn.
# What was measured:
# [1] = test system: Nitrobacter spp.; test: Nitrite nitrogen in ammonium amended soil incubated at 25° C.; details: soil 25° C., 200 ppm N
# Procedure: Determination of nitrite nitrogen and nitrate nitrogen in soil prepared in Example 1 above, which is amended with 200 ppm of nitrogen as aqueous ammonium sulfate, […], is determined using the nitrite and nitrate analysis of the American Organization of Analytical Chemists (AOAC pp. 653-655).
# [2] = test system: Nitrosomonas spp.; test: Nitrification of ammonium in soil incubated at 25° C. (ammonium recovery, nitrate accumulation); details: soil 25° C.; for Concentration of nitrate nitrogen / Recovery of Ammonium Nitrogen: 200 ppm N
# Procedure: In these evaluations, one hundred grams (100 g) of oven dry, silt loam field soil with low residual nitrogen is added to a 6×12 cm screw-capped glass jar for each sampling date to provide an optimum environment for nitrification.
# Two replicates of each treatment-sampling date are established. The soil is adjusted to 50% water saturation with an aqueous solution of ammonium sulfate at 200 ppm N and the chemical to be tested as a nitrification inhibitor at rates of from 0.10 to 0.50 ppm.
# Incubation is at either 25° C. or 38° C. for 0, 1, 2, 4, 7, 9, 12, 16 or 20 weeks. Inorganic N is extracted by adding 2M KCl (10:1 v/w) and shaking for one hour, allowing settling for fifteen minutes. A 10 ml aliquot from the supernatant is assayed for ammonium, nitrite and nitrate by standard steam distillation methods (AOAC, pp. 653-655). Nitrapyrin (0.5 ppm) is used as a nitrification inhibitor for comparison. Benzyl alcohol, acetone, and a non-N amended soil are run as controls and as a check on mineralization.
# Nitrification: Ammonium recovery and nitrate accumulation are indicative of nitrification, and data obtained with test compounds are reported in Tables I and II.
structure (smiles),measurement,setting,value
CC(C)=O [Acetone],Concentration of nitrite nitrogen,"[1]; 5%, week 0",6 ppm
same,Concentration of nitrite nitrogen,"[1]; 5%, week 1",4 ppm
same,Concentration of nitrite nitrogen,"[1]; 5%, week 2",-1 ppm
same,Concentration of nitrite nitrogen,"[1]; 5%, week 4",9 ppm
same,Concentration of nitrite nitrogen,"[1]; 5%, week 7",56 ppm
same,Concentration of nitrite nitrogen,"[1]; 5%, week 9",5 ppm
same,Concentration of nitrite nitrogen,"[1]; 5%, week 12",20 ppm
same,Concentration of nitrite nitrogen,"[1]; 5%, week 16",10 ppm
same,Concentration of nitrite nitrogen,"[1]; 5%, week 20",11 ppm
same,"Effect on nitrification, in words",[2]; 5%,initial rate of nitrification is slowed slightly
same,Concentration of nitrate nitrogen,"[2]; 5%, week 0",19 PPM
same,Recovery of Ammonium Nitrogen,"[2]; 5%, week 0",194 PPM
same,Concentration of nitrate nitrogen,"[2]; 5%, week 1",7 PPM
same,Recovery of Ammonium Nitrogen,"[2]; 5%, week 1",138 PPM
same,Concentration of nitrate nitrogen,"[2]; 5%, week 2",0 PPM
same,Recovery of Ammonium Nitrogen,"[2]; 5%, week 2",122 PPM
same,Concentration of nitrate nitrogen,"[2]; 5%, week 4",36 PPM
same,Recovery of Ammonium Nitrogen,"[2]; 5%, week 4",127 PPM
same,Concentration of nitrate nitrogen,"[2]; 5%, week 7",75 PPM
same,Recovery of Ammonium Nitrogen,"[2]; 5%, week 7",8 PPM
same,Concentration of nitrate nitrogen,"[2]; 5%, week 9",100 PPM
same,Recovery of Ammonium Nitrogen,"[2]; 5%, week 9",1 PPM
same,Concentration of nitrate nitrogen,"[2]; 5%, week 12",155 PPM
same,Recovery of Ammonium Nitrogen,"[2]; 5%, week 12",1 PPM
same,Concentration of nitrate nitrogen,"[2]; 5%, week 16",165 PPM
same,Recovery of Ammonium Nitrogen,"[2]; 5%, week 16",1 PPM
"CC[C@@H](C(=O)[C@@H](C)[C@@H](O)[C@H](C)CCc1ccc(C)c(O)c1C(=O)O)[C@H]1O[C@](CC)([C@H]2CC[C@](O)(CC)[C@H](C)O2)C[C@@H]1C [Lasalocid sodium salt, Lasalocid]",Concentration of nitrite nitrogen,"[1]; 0.10 ppm, week 0",8 ppm
same,Concentration of nitrite nitrogen,"[1]; 0.10 ppm, week 1",2 ppm
same,Concentration of nitrite nitrogen,"[1]; 0.10 ppm, week 2",1 ppm
same,Concentration of nitrite nitrogen,"[1]; 0.10 ppm, week 4",15 ppm
same,Concentration of nitrite nitrogen,"[1]; 0.10 ppm, week 7",12 ppm
same,Concentration of nitrite nitrogen,"[1]; 0.10 ppm, week 9",10 ppm
same,Concentration of nitrite nitrogen,"[1]; 0.10 ppm, week 12",5 ppm
same,Concentration of nitrite nitrogen,"[1]; 0.10 ppm, week 16",6 ppm
same,Concentration of nitrite nitrogen,"[1]; 0.10 ppm, week 20",11 ppm
same,Concentration of nitrite nitrogen,"[1]; 0.25 ppm, week 0",5 ppm
same,Concentration of nitrite nitrogen,"[1]; 0.25 ppm, week 1",0 ppm
same,Concentration of nitrite nitrogen,"[1]; 0.25 ppm, week 2",3 ppm
same,Concentration of nitrite nitrogen,"[1]; 0.25 ppm, week 4",2 ppm
same,Concentration of nitrite nitrogen,"[1]; 0.25 ppm, week 7",0 ppm
same,Concentration of nitrite nitrogen,"[1]; 0.25 ppm, week 9",3 ppm
same,Concentration of nitrite nitrogen,"[1]; 0.25 ppm, week 12",8 ppm
same,Concentration of nitrite nitrogen,"[1]; 0.25 ppm, week 16",-1 ppm
same,Concentration of nitrite nitrogen,"[1]; 0.25 ppm, week 20",40 ppm
same,Concentration of nitrite nitrogen,"[1]; 0.50 ppm, week 0",7 ppm
same,Concentration of nitrite nitrogen,"[1]; 0.50 ppm, week 1",2 ppm
same,Concentration of nitrite nitrogen,"[1]; 0.50 ppm, week 2",6 ppm
same,Concentration of nitrite nitrogen,"[1]; 0.50 ppm, week 4",2 ppm
same,Concentration of nitrite nitrogen,"[1]; 0.50 ppm, week 7",-4 ppm
same,Concentration of nitrite nitrogen,"[1]; 0.50 ppm, week 9",2 ppm
same,Concentration of nitrite nitrogen,"[1]; 0.50 ppm, week 12",-11 ppm
same,Concentration of nitrite nitrogen,"[1]; 0.50 ppm, week 16",7 ppm
same,Concentration of nitrite nitrogen,"[1]; 0.50 ppm, week 20",7 ppm
same,Concentration of nitrate nitrogen,"[2]; 0.10 ppm, week 0",19 PPM
same,Recovery of Ammonium Nitrogen,"[2]; 0.10 ppm, week 0",194 PPM
same,Concentration of nitrate nitrogen,"[2]; 0.10 ppm, week 1",21 PPM
same,Recovery of Ammonium Nitrogen,"[2]; 0.10 ppm, week 1",177 PPM
same,Concentration of nitrate nitrogen,"[2]; 0.10 ppm, week 2",41 PPM
same,Recovery of Ammonium Nitrogen,"[2]; 0.10 ppm, week 2",143 PPM
same,Concentration of nitrate nitrogen,"[2]; 0.10 ppm, week 4",90 PPM
same,Recovery of Ammonium Nitrogen,"[2]; 0.10 ppm, week 4",109 PPM
same,Concentration of nitrate nitrogen,"[2]; 0.10 ppm, week 7",197 PPM
same,Recovery of Ammonium Nitrogen,"[2]; 0.10 ppm, week 7",7 PPM
same,Concentration of nitrate nitrogen,"[2]; 0.10 ppm, week 9",219 PPM
same,Recovery of Ammonium Nitrogen,"[2]; 0.10 ppm, week 9",0 PPM
same,Concentration of nitrate nitrogen,"[2]; 0.10 ppm, week 12",220 PPM
same,Recovery of Ammonium Nitrogen,"[2]; 0.10 ppm, week 12",8 PPM
same,Concentration of nitrate nitrogen,"[2]; 0.10 ppm, week 16",223 PPM
same,Recovery of Ammonium Nitrogen,"[2]; 0.10 ppm, week 16",3 PPM
same,"Specific inhibition of nitrification through activity against Nitrosomonas spp., in words",[2]; 0.1 to 0.5 ppm,appear to specifically inhibit nitrification through activity against Nitrosomonas spp.
same,Concentration of nitrate nitrogen,"[2]; 0.25 ppm, week 0",18 PPM
same,Recovery of Ammonium Nitrogen,"[2]; 0.25 ppm, week 0",194 PPM
same,Concentration of nitrate nitrogen,"[2]; 0.25 ppm, week 1",21 PPM
same,Recovery of Ammonium Nitrogen,"[2]; 0.25 ppm, week 1",184 PPM
same,Concentration of nitrate nitrogen,"[2]; 0.25 ppm, week 2",18 PPM
same,Recovery of Ammonium Nitrogen,"[2]; 0.25 ppm, week 2",186 PPM
same,Concentration of nitrate nitrogen,"[2]; 0.25 ppm, week 4",28 PPM
same,Recovery of Ammonium Nitrogen,"[2]; 0.25 ppm, week 4",197 PPM
same,Concentration of nitrate nitrogen,"[2]; 0.25 ppm, week 7",26 PPM
same,Recovery of Ammonium Nitrogen,"[2]; 0.25 ppm, week 7",194 PPM
same,Concentration of nitrate nitrogen,"[2]; 0.25 ppm, week 9",68 PPM
same,Recovery of Ammonium Nitrogen,"[2]; 0.25 ppm, week 9",147 PPM
same,Concentration of nitrate nitrogen,"[2]; 0.25 ppm, week 12",46 PPM
same,Recovery of Ammonium Nitrogen,"[2]; 0.25 ppm, week 12",180 PPM
same,Concentration of nitrate nitrogen,"[2]; 0.25 ppm, week 16",158 PPM
same,Recovery of Ammonium Nitrogen,"[2]; 0.25 ppm, week 16",78 PPM
same,Concentration of nitrate nitrogen,"[2]; 0.25 ppm, week 20",154 PPM
same,Recovery of Ammonium Nitrogen,"[2]; 0.25 ppm, week 20",44 PPM
same,Concentration of nitrate nitrogen,"[2]; 0.50 ppm, week 0",18 PPM
same,Recovery of Ammonium Nitrogen,"[2]; 0.50 ppm, week 0",195 PPM
same,Concentration of nitrate nitrogen,"[2]; 0.50 ppm, week 1",18 PPM
same,Recovery of Ammonium Nitrogen,"[2]; 0.50 ppm, week 1",169 PPM
same,Concentration of nitrate nitrogen,"[2]; 0.50 ppm, week 2",14 PPM
same,Recovery of Ammonium Nitrogen,"[2]; 0.50 ppm, week 2",168 PPM
same,Concentration of nitrate nitrogen,"[2]; 0.50 ppm, week 4",18 PPM
same,Recovery of Ammonium Nitrogen,"[2]; 0.50 ppm, week 4",173 PPM
same,Concentration of nitrate nitrogen,"[2]; 0.50 ppm, week 7",18 PPM
same,Recovery of Ammonium Nitrogen,"[2]; 0.50 ppm, week 7",199 PPM
same,Concentration of nitrate nitrogen,"[2]; 0.50 ppm, week 9",17 PPM
same,Recovery of Ammonium Nitrogen,"[2]; 0.50 ppm, week 9",202 PPM
same,Concentration of nitrate nitrogen,"[2]; 0.50 ppm, week 12",20 PPM
same,Recovery of Ammonium Nitrogen,"[2]; 0.50 ppm, week 12",215 PPM
same,Concentration of nitrate nitrogen,"[2]; 0.50 ppm, week 16",52 PPM
same,Recovery of Ammonium Nitrogen,"[2]; 0.50 ppm, week 16",175 PPM
same,Concentration of nitrate nitrogen,"[2]; 0.50 ppm, week 20",26 PPM
same,Recovery of Ammonium Nitrogen,"[2]; 0.50 ppm, week 20",135 PPM
